Measurements reported in patent US20170334899A1, “AMINO-SUBSTITUTED ISOTHIAZOLES” (Bayer Pharma Aktiengesellschaft, priority 2014, published 2017).

How the values were obtained:
[1] = system: human cervical tumor cell line HeLa (ATCC CCL-2); assay: SAC-Formation - Nocodazole-Induced Assay; type: cell-based; conditions: Homo sapiens, HeLa, 24 h, HeLa cells, nocodazole 0.1 μg/ml together with test compound, decrease of mitotic cells (phospho-histone H3 Ser10)
How it was run: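 Loss of phospho-histone H3 Ser10-positive cells, counted against Hoechst-stained nuclei by high-content imaging, marked mitotic breakthrough. Compounds (0.005–20 μM, 0.5% DMSO) were co-dosed with 0.1 μg/ml nocodazole onto HeLa cells for 24 h at 37 °C. Curves were fitted with a four-parameter Hill equation.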

[2] = biological target: T1, catalytic domain of human Bub1 (amino acids 704-1085) (Homo sapiens, UniProt O43683); assay: Bub1 kinase assay (TR-FRET); type: biochemical; conditions: 10 μM ATP, avg, read-out: Bub1 avg (IC50 [mol/l])
T1 construct: catalytic domain of human Bub1 (amino acids 704-1085); His6 (N); made in house; host or cells: insect cells (Hi5)
T1 sequence (O43683 704-1085): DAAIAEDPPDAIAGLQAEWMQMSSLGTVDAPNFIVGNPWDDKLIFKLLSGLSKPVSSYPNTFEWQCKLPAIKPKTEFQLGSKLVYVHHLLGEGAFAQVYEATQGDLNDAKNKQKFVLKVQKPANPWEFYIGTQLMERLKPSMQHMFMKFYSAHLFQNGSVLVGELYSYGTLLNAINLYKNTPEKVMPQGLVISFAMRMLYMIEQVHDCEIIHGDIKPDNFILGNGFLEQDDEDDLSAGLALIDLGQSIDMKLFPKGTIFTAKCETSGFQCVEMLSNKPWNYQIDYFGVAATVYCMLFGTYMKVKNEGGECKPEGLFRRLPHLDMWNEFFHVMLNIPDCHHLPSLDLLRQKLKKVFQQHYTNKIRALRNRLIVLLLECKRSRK
How it was run: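 Readout is the 665/620 nm TR-FRET ratio from anti-phosphoserine antibody, Eu-labelled anti-mouse IgG and streptavidin-XL665, scaled between no-enzyme and uninhibited controls. Reaction: 1 μM biotinylated peptide, 10 μM ATP, 60 min, 22 °C, after 15 min compound preincubation with His6-Bub1 (704-1085, insect-expressed, ~200 ng/ml).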

Row | SMILES | IC50 [1] | IC50 [2]
1 | Cc1nsc(Nc2cncc(C(F)(F)F)n2)c1C(=O)Nc1ccc(OC2CCN(C)CC2)nc1 [Example 219, 3-methyl-N-{6-[(1-methylpiperidin-4-yl)oxy]pyridin-3-yl}-5-{[6-(trifluoromethyl)pyrazin-2-yl]amino}-1,2-thiazole-4-carboxamide] | 910 nM | > 20 µM
2 | Cc1nsc(Nc2cncc(C(F)(F)F)n2)c1C(=O)Nc1ccc(OC2CCN(CCF)CC2)c(F)c1 [Example 223, N-(3-fluoro-4-{[1-(2-fluoroethyl)piperidin-4-yl]oxy}phenyl)-3-methyl-5-{[6-(trifluoromethyl)pyrazin-2-yl]amino}-1,2-thiazole-4-carboxamide] | 180 nM | > 20 µM
3 | Cc1nsc(Nc2cnc3ccccc3n2)c1C(=O)Nc1ccc(NC2CCN(C(=O)OC(C)(C)C)CC2)nc1 [Example 234, tert-butyl 4-{[5-({[3-methyl-5-(quinoxalin-2-ylamino)-1,2-thiazol-4-yl]carbonyl}amino)pyridin-2-yl]amino}piperidine-1-carboxylate] | 1000 nM | > 20 µM
4 | COC(=O)c1cc(NC(=O)c2c(C)nsc2Nc2cnc3ccccc3n2)cc(C(=O)OC)c1 [Example 237, dimethyl 5-({[3-methyl-5-(quinoxalin-2-ylamino)-1,2-thiazol-4-yl]carbonyl}amino)isophthalate] | 580 nM | > 20 µM
5 | Cc1nsc(Nc2cncc(C(F)(F)F)n2)c1C(=O)Nc1ccc(C(=O)NC2CCN(CC(F)F)CC2)cc1 [Example 225, N-N-(4-{[1-(2,2-difluoroethyl)piperidin-4-yl]carbamoyl}phenyl)-3-methyl-5-{[6-(trifluoromethyl)pyrazin-2-yl]amino}-1,2-thiazole-4-carboxamide] | 310 nM | > 20 µM
6 | Cc1nsc(Nc2cnc(C(F)(F)F)cn2)c1C(=O)Nc1ccc(OCC2CCCN(C(=O)OC(C)(C)C)C2)nc1 (stereo not shown) [Example 228, tert-butyl 3-{[(5-{[(3-methyl-5-{[5-(trifluoromethyl)pyrazin-2-yl]amino}-1,2-thiazol-4-yl)carbonyl]amino}pyridin-2-yl)oxy]methyl}piperidine-1-carboxylate] | 180 nM | > 20 µM
7 | Cc1nsc(Nc2cncc(C(F)(F)F)n2)c1C(=O)Nc1ccc(C(=O)NC2CCN(C(=O)OC(C)(C)C)CC2)cc1 [Example 222, tert-butyl 4-[(4-{[(3-methyl-5-{[6-(trifluoromethyl)pyrazin-2-yl]amino}-1,2-thiazol-4-yl)carbonyl]amino}benzoyl)amino] piperidine-1-carboxylate] | 770 nM | > 20 µM
8 | COC(=O)CCc1cccc(NC(=O)c2c(C)nsc2Nc2ccc(C#N)cn2)c1 [Example 176, methyl 3-{3-[({5-[(5-cyanopyridin-2-yl)amino]-3-methyl-1,2-thiazol-4-yl}carbonyl)amino]phenyl}propanoate] | 230 nM | > 20 µM
9 | Cc1nsc(Nc2cnc3ccccc3n2)c1C(=O)Nc1cccc(NC(=O)OC(C)(C)C)c1 [Example 178, tert-butyl [3-({[3-methyl-5-(quinoxalin-2-ylamino)-1,2-thiazol-4-yl]carbonyl}amino)-phenyl]carbamate] | 210 nM | > 20 µM
10 | Cc1nsc(Nc2cc(C#N)ccn2)c1C(=O)Nc1ccc(OCCC(=O)OC(C)(C)C)nc1 [Example 200, tert-butyl 3-({5-[({5-[(4-cyanopyridin-2-yl)amino]-3-methyl-1,2-thiazol-4-yl}carbonyl)amino]pyridin-2-yl}oxy)propanoate] | 460 nM | > 20 µM
11 | Cc1nsc(Nc2cnc3ccccc3n2)c1C(=O)Nc1ccc(Oc2cccnc2)nc1 [Example 231, 3-methyl-N-[6-(pyridin-3-yloxy)pyridin-3-yl]-5-(quinoxalin-2-ylamino)-1,2-thiazole-4-carboxamide] | 58 nM | > 20 µM
12 | Cc1nsc(Nc2cnc3ccccc3n2)c1C(=O)Nc1ccc(NCCNC(=O)OC(C)(C)C)nc1 [Example 244, tert-butyl (2-{[5-({[3-methyl-5-(quinoxalin-2-ylamino)-1,2-thiazol-4-yl]carbonyl}amino)pyridin-2-yl]amino}ethyl)carbamate] | 3700 nM | > 20 µM
13 | Cc1nsc(Nc2cncc(C(F)(F)F)n2)c1C(=O)Nc1ccc(OCCCN)nc1 [Example 209, N-[6-(3-aminopropoxy)pyridin-3-yl]-3-methyl-5-{[6-(trifluoromethyl)pyrazin-2-yl]amino}-1,2-thiazole-4-carboxamide] | 2100 nM | > 20 µM

Further compounds by falling IC50 [1], results first:

Row | IC50 [1] | IC50 [2] | SMILES
14 | 860 nM | > 20 µM | Cc1nsc(Nc2cnc(C(F)(F)F)cn2)c1C(=O)Nc1ccc(OC2CCN(C(=O)OC(C)(C)C)CC2)c(F)c1 [Example 217, tert-butyl 4-(2-fluoro-4-{[(3-methyl-5-{[5-(trifluoromethyl)pyrazin-2-yl]amino}-1,2-thiazol-4-yl)carbonyl]amino}phenoxy)piperidine-1-carboxylate]
15 | 330 nM | > 20 µM | CNC(=O)c1ccc(NC(=O)c2c(C)nsc2Nc2ccc(C#N)cn2)cc1F [Example 208, 5-[(5-cyanopyridin-2-yl)amino]-N-[3-fluoro-4-(methylcarbamoyl)phenyl]-3-methyl-1,2-thiazole-4-carboxamide]
16 | 320 nM | > 20 µM | Cc1nsc(Nc2cncc(C(F)(F)F)n2)c1C(=O)Nc1ccc(C(=O)NCCN2CCCC(F)(F)C2)cc1 [Example 214, N-(4-{[2-(3,3-difluoropiperidin-1-yl)ethyl]carbamoyl}phenyl)-3-methyl-5-{[6-(trifluoromethyl)pyrazin-2-yl]amino}-1,2-thiazole-4-carboxamide]
17 | 140 nM | > 20 µM | Cc1nsc(Nc2cnc(C(F)(F)F)cn2)c1C(=O)Nc1ccc(F)c(OC2CCN(C(=O)OC(C)(C)C)CC2)c1 [Example 229, tert-butyl 4-(2-fluoro-5-{[(3-methyl-5-{[5-(trifluoromethyl)pyrazin-2-yl]amino}-1,2-thiazol-4-yl)carbonyl]amino}phenoxy)piperidine-1-carboxylate]
18 | 110 nM | > 20 µM | Cc1nsc(Nc2cncc(C(F)(F)F)n2)c1C(=O)Nc1ccc(OC2CCN(CC(F)F)CC2)c(F)c1 [Example 224, N-(4-{[1-(2,2-difluoroethyl)piperidin-4-yl]oxy}-3-fluorophenyl)-3-methyl-5-{[6-(trifluoromethyl)pyrazin-2-yl]amino}-1,2-thiazole-4-carboxamide]
19 | 75 nM | > 20 µM | Cc1nsc(Nc2cncc(C(F)(F)F)n2)c1C(=O)Nc1ccc(OCCCNC(=O)OC(C)(C)C)nc1 [Example 190, tert-butyl {3-[(5-{[(3-methyl-5-{[6-(trifluoromethyl)pyrazin-2-yl]amino}-1,2-thiazoL-4-yl)carbonyl]amino}pyridin-2-yl)oxy]propyl}carbamate]
20 | 59 nM | > 20 µM | Cc1nsc(Nc2cncc(C(F)(F)F)n2)c1C(=O)Nc1ccc(OCCNC(=O)OC(C)(C)C)nc1 [Example 191, tert-butyl {2-[(5-{[(3-methyl-5-{[6-(trifluoromethyl)pyrazin-2-yl]amino}-1,2-thiazol-4-yl)carbonyl]amino}pyridin-2-yl)oxy]ethyl}carbamate]
